Consider nine molecules from patent US5116851A, “Pharmaceutical composition and method for treating cardiovascular diseases using substituted anilides and sulfonamides” (E. R. Squibb & Sons, Inc., priority 1990, dated 1992).

In assay [1] the test system is Ischemic and Nonischemic Isolated Rat Heart. The experiment in a line: Isolated perfused rat heart (Langendorff), global ischemia/reperfusion: cardiac function, flow and LDH release. The arrangement: species or system rat (male Sprague-Dawley); FLOW (coronary blood flow): unit not given here. The note with it: for LDH (Lactate Dehydrogenase Release): Postischemia, cumulative over 30 min reperfusion, per g preischemia heart weight, lower = greater cardioprotection; for LDH/DP: ratio of cardioprotection to cardiodepression, lower = greater selectivity. How it is done: Lactate dehydrogenase is an enzyme released in the heart during an ischemic event and is an index of cardiac cell necrosis. In the Grover et al. model, this is measured during reperfusion and an agent which provides for lower release levels of LDH is considered to offer greater cardioprotection since lower LDH indicates a smaller infarct size. Cardiac function is determined using the double product (DP) of heart rate times the left ventricular developed pressure (LVDP) divided by 1,000.
The lower the value for DP before ischemia for a given agent, the more cardiodepressant it is considered to be.
Male Sprague-Dawley rats (450-550 g) were used in all experiments. The rats were anesthetized using 30 mg/kg sodium pentobarbital (i.p.). They were intubated and then treated with i.v. heparin (1000 U/kg). While being mechanically ventilated, their hearts were perfused in situ via retrograde cannulation of the aorta. The hearts were then excised and quickly moved to a Langendorff apparatus where they were perfused with Krebs-Henseleit bicarbonate buffer (112 mM NaCl, 5 mM KCl, 1.2 mMMg SO4, 1 mM KH2 PO4, 1.25 mM CaCl2, 11.5 mM dextrose, and 2 mM pyruvate) at a constant pressure (75 mm Hg). A water filled latex balloon attached to a metal cannula was then inserted into the left ventricle and connected to a Statham pressure transducer for measurement of left ventricular pressure. The hearts were allowed to equilibrate for 15 minutes at which time end diastolic pressure (EDP) was adjusted to 5 mm Hg and this was maintained for 5 minutes. Pre-ischemia or pre-drug function, heart rate and coronary blood flow (extracorporeal electromagnetic flow probe, Carolina Medical Electronics, King, N.C.) were then measured. Cardiac function was determined using the double product of heart rate (HR) times left ventricular developed pressure (LVDP) divided by 1,000.
All of these hearts were treated with their respective drugs or vehicle for ten minutes. At this time, post-drug cardiac function and flow were measured and then the hearts were made globally ischemic by shutting off the buffer perfusion. The ischemia was maintained for 25 minutes at which time reperfusion with nondrug treated buffer was instituted. Reperfusion was maintained for 30 minutes and at this time reperfusion function and flow were again determined.
At the end of the reperfusion period, the reperfusion buffer was sampled for cumulative LDH release as previously described. LDH release was expressed as U/g preischemia heart weight for the 30 minute collection period. LDH release is a sensitive index for loss of cell viability. Determination of the relationship between pre-ischemic, post-drug cardiac function was made by dividing the double product (HR ×LVDP/1000) by the cumulative LDH release.
All data were analyzed using a one way analysis of variance. Multiple comparisons were done using the Duncan procedure. All data are expressed as the mean±SE.
The pre-ischemia DP values are a measure of the cardiodepression of the drug on the healthy cardiac tissue.
The post-ischemia LDH values are a measure of the cardioprotection or anti-ischemic activity of the drug. In this case, lower values indicate greater anti-ischemic activity or greater cardioprotection.
The LDH/DP values are the ratio of cardioprotection to cardiodepression, the lower values indicating a greater selectivity for anti-ischemic activity.
The post-ischemia DP indicates cardiodepression after the ischemic episode and the lower DP values here are indicative of agents which still remained in the cardiac tissue for more than 30 minutes post ischemia. [drawing 16]

Assay [2] relates to isolated canine cardiac Purkinje fibers. Kind of assay: Calcium-dependent slow response action potential amplitude (SAPA), standard microelectrode techniques. The assay is classed as cell-based. The following applies: Canis lupus familiaris, read-out: IC50 in reducing slow response action potential amplitude (SAPA). How it is done:
The calcium channel blocking and sodium entry blocking activities of compounds of the present invention were tested using standard microelectrode techniques in isolated canine cardiac Purkinje fibers as reported in J. L. Bergey et al., "Antiarrhythmic, hemodynamic, and cardiac electrophysiological evaluation of N-(2,6-dimethylphenyl)-N'-[3-(1-methylethylamino)propyl]-urea), (Wy 42,362)", Arzneim -Forsch, 33:1258, 1983). […] Depression of this parameter indicates depression of calcium entry into cardiac tissue. […] Significant depression of the upstroke velocity (vmax) indicates the blocking of sodium entry into cardiac tissue.

The next assay deals with rabbit aorta. The experiment in a line: Reduction of tone of rabbit aorta by high potassium (Vasc. Ca^++ Block). The assay is classed as cell-based. The following applies: Oryctolagus cuniculus; read-out: IC50 in reducing tone of rabbit aorta by high potassium (Vasc. Ca^++ Block). The source says:
|(SAPA), in reducing maximum upstroke velocity (Vmax) |and in reducing tone of rabbit aorta by high potassium |(Vasc. Ca^++ Block)

Setting [3] is: Postischemia (30 min.), 1 μM, occlusion 25 minutes, reperfusion 30 minutes.
Where [4] appears, read: Preischemia (Post Drug), 1 μM, lower = more cardiodepressant.

The structures appear in SMILES notation. Counter-ions that a name gives are not always drawn.

Turning to `CN(C)CCCCN(C(=O)Cc1ccccc1)c1ccccc1SCc1ccccc1` [Example 5, N-[4-(Dimethylamino)butyl]-N-[2-[(phenylmethyl)thio]phenyl]benzeneacetamideoxalate (1:1) salt], in assay [1] (setting [3]), the “DP (Double Product, HR x LVDP / 1,000)” value is 10; the “FLOW (coronary blood flow)” value was 11; the “HR (Heart Rate)” value is reported as 180 beats/min; the “LVDP (Left Ventricular Developed Pressure)” value worked out at 51 mmHg. Besides, in assay [1] (1 μM), the “LDH (Lactate Dehydrogenase Release)” value is given as 16.5 U/g and the LDH/DP stood at 0.57. Also, in assay [1] (Preischemia (Post Drug), 1 μM), the “FLOW (coronary blood flow)” value is on record as 15, the “HR (Heart Rate)” value came to 253 beats/min and the “LVDP (Left Ventricular Developed Pressure)” value was 115 mmHg. The “DP (Double Product, HR x LVDP / 1,000)” value in assay [1] (setting [4]) turned out to be 29.
As for `CN(C)CCCN(C(=O)c1ccccc1)c1ccccc1SCc1ccccc1.Cl` [Example 7, 2'-(Benzylthio)-N-[3-(dimethylamino)propyl]benzanilide, hydrochloride], in assay [1] (setting [3]), the “DP (Double Product, HR x LVDP / 1,000)” value was found to be 15; the “FLOW (coronary blood flow)” value is 8; the “HR (Heart Rate)” value stood at 220 beats/min; the “LVDP (Left Ventricular Developed Pressure)” value came out at 72 mmHg. Besides, in assay [1] (1 μM), the “LDH (Lactate Dehydrogenase Release)” value was 6.7 U/g and the LDH/DP amounted to 0.24. In assay [1] (Preischemia (Post Drug), 1 μM), the “FLOW (coronary blood flow)” value was determined as 11, the “HR (Heart Rate)” value came to 218 beats/min and the “LVDP (Left Ventricular Developed Pressure)” value was 132 mmHg. Besides, the “DP (Double Product, HR x LVDP / 1,000)” value in assay [1] (setting [4]) is listed as 29.
In the case of `COc1ccc(CSc2ccccc2N(CCCN(C)C)C(=O)Cc2ccccc2)cc1` [Example 2, N-[3-(Dimethylamino)propyl]-N-[2-[[(4-methoxyphenyl)methyl]thio]phenyl]benzeneacetamide, monohydrochloride], in assay [1] (setting [3]), the “DP (Double Product, HR x LVDP / 1,000)” value is reported as 14; the “FLOW (coronary blood flow)” value came to 11; the “HR (Heart Rate)” value turned out to be 188 beats/min; the “LVDP (Left Ventricular Developed Pressure)” value turned out to be 73 mmHg. For the same molecule, in assay [1] (1 μM), the “LDH (Lactate Dehydrogenase Release)” value is 8.9 U/g and the LDH/DP came to 0.30. Also, in assay [1] (Preischemia (Post Drug), 1 μM), the “FLOW (coronary blood flow)” value is on record as 20, the “HR (Heart Rate)” value was determined as 219 beats/min and the “LVDP (Left Ventricular Developed Pressure)” value amounted to 135 mmHg. For the same molecule, the “DP (Double Product, HR x LVDP / 1,000)” value in assay [1] (setting [4]) worked out at 29.
Turning to `CN(C)CCN(C(=O)Cc1ccccc1)c1ccccc1SCc1ccccc1.Cl` [Example 4, N-[2-(Dimethylamino)ethyl]-N-[2-[(phenylmethyl)thio]phenyl]benzeneacetamide, monohydrochloride], in assay [1] (setting [3]), the “DP (Double Product, HR x LVDP / 1,000)” value was found to be 15; the “FLOW (coronary blood flow)” value worked out at 15; the “HR (Heart Rate)” value amounted to 239 beats/min; the “LVDP (Left Ventricular Developed Pressure)” value came out at 60 mmHg. Further, in assay [1] (1 μM), the “LDH (Lactate Dehydrogenase Release)” value is on record as 21 U/g and the LDH/DP was 0.79. For the same molecule, in assay [1] (Preischemia (Post Drug), 1 μM), the “FLOW (coronary blood flow)” value worked out at 20, the “HR (Heart Rate)” value was found to be 236 beats/min and the “LVDP (Left Ventricular Developed Pressure)” value is 123 mmHg. The “DP (Double Product, HR x LVDP / 1,000)” value in assay [1] (setting [4]) was found to be 30.
As a reminder, the IC50 is the concentration that inhibits the measured activity by half. Consider `CN(C)CCCCN(C(=O)C=Cc1ccccc1)c1ccccc1SCc1ccccc1` [Example 24, N-[4-(Dimethylamino)butyl]-3-phenyl-N-[2-[(phenylmethyl)thio]phenyl]-2-propenamide, oxalate salt (1:1)], for which the values for the IC50 (in assay [2]; in the assay with rabbit aorta) were 2600 nM and 1200 nM, respectively.
On to `COc1cc(SCc2ccccc2)c(N(CCCN(C)C)C(=O)Cc2ccccc2)cc1OC` [Example 8, N-[3-(Dimethylamino)propyl]-N-[4,5-dimethoxy-2-sulfonyl),[(phenylmethyl)thio]phenyl]benzeneacetamide, oxalate (1:1) salt], for which, in assay [1] (setting [3]), the “DP (Double Product, HR x LVDP / 1,000)” value came out at 17; the “FLOW (coronary blood flow)” value is listed as 8; the “HR (Heart Rate)” value was 246 beats/min; the “LVDP (Left Ventricular Developed Pressure)” value was 71 mmHg. Also, in assay [1] (1 μM), the “LDH (Lactate Dehydrogenase Release)” value was 3.7 U/g and the LDH/DP turned out to be 0.26. In assay [1] (Preischemia (Post Drug), 1 μM), the “FLOW (coronary blood flow)” value is recorded as 19, the “HR (Heart Rate)” value was 216 beats/min and the “LVDP (Left Ventricular Developed Pressure)” value was 65 mmHg. Also, the “DP (Double Product, HR x LVDP / 1,000)” value in assay [1] (setting [4]) is listed as 14.
Consider `COc1ccc(CSc2cc(Cl)ccc2N(CCCN(C)C)C(=O)Cc2ccccc2)cc1.Cl` [Example 9, N-[3-(Dimethylamino)propyl]-N-[4-chloro-2-[[(4-methoxyphenyl)methyl]thio]phenyl]benzeneacetamide, monohydrochloride], for which, in assay [1] (setting [3]), the “DP (Double Product, HR x LVDP / 1,000)” value came out at 11; the “FLOW (coronary blood flow)” value came out at 9; the “HR (Heart Rate)” value is 214 beats/min; the “LVDP (Left Ventricular Developed Pressure)” value amounted to 52 mmHg. In addition, in assay [1] (1 μM), the “LDH (Lactate Dehydrogenase Release)” value amounted to 8.2 U/g and the LDH/DP came out at 0.29. Besides, in assay [1] (Preischemia (Post Drug), 1 μM), the “FLOW (coronary blood flow)” value is recorded as 18, the “HR (Heart Rate)” value turned out to be 226 beats/min and the “LVDP (Left Ventricular Developed Pressure)” value amounted to 126 mmHg. Also, the “DP (Double Product, HR x LVDP / 1,000)” value in assay [1] (setting [4]) came to 29. Besides, the “cardioprotection compared with diltiazem” value in assay [1] (post-ischemia LDH, 1 μM) is on record as “comparable to diltiazem in cardioprotection”.
On to `CN(C)CCCN(C(=O)Cc1ccccc1)c1ccccc1OCc1ccccc1.O=C(O)C(=O)O` [Example 6, N-[3-(Dimethylamino)propyl]-N-[2-(phenylmethoxy)phenyl]benzeneacetamide, oxalate salt (1:1)], for which, in assay [1] (setting [3]), the “DP (Double Product, HR x LVDP / 1,000)” value is on record as 20; the “FLOW (coronary blood flow)” value is reported as 10; the “HR (Heart Rate)” value was determined as 222 beats/min; the “LVDP (Left Ventricular Developed Pressure)” value turned out to be 89 mmHg. Moreover, in assay [1] (1 μM), the “LDH (Lactate Dehydrogenase Release)” value is recorded as 5.7 U/g and the LDH/DP stood at 0.22. Also, in assay [1] (Preischemia (Post Drug), 1 μM), the “FLOW (coronary blood flow)” value worked out at 15, the “HR (Heart Rate)” value stood at 230 beats/min and the “LVDP (Left Ventricular Developed Pressure)” value turned out to be 113 mmHg. Moreover, the “DP (Double Product, HR x LVDP / 1,000)” value in assay [1] (setting [4]) is 26.
Turning to `COc1ccc([C@@H]2Sc3ccccc3N(CCN(C)C)C(=O)[C@@H]2OC(C)=O)cc1` [Diltiazem, reference compound], in assay [1] (Grover et al. methodology), the “ischemic selectivity among diltiazem, nifedipine and verapamil” value was “greatest ischemic selectivity”. Besides, in assay [1] (setting [3]), the “DP (Double Product, HR x LVDP / 1,000)” value is 24; the “FLOW (coronary blood flow)” value amounted to 17; the “HR (Heart Rate)” value came out at 231 beats/min; the “LVDP (Left Ventricular Developed Pressure)” value is reported as 104 mmHg. Also, in assay [1] (1 μM), the “LDH (Lactate Dehydrogenase Release)” value is 10 U/g and the LDH/DP is listed as 0.98. For the same molecule, in assay [1] (Preischemia (Post Drug), 1 μM), the “FLOW (coronary blood flow)” value was 22, the “HR (Heart Rate)” value was found to be 217 beats/min and the “LVDP (Left Ventricular Developed Pressure)” value is 45 mmHg. The “DP (Double Product, HR x LVDP / 1,000)” value in assay [1] (setting [4]) is reported as 10.
